We go through four compounds from patent US20220168431A1, “METHODS OF TREATING CANCER USING TRIMETAZIDINE-BASED COMPOUNDS” (IMBRIA PHARMACEUTICALS, INC., priority 2019, published 2022).

Several values for one entry are separate records, joined by “and”; a condition that tells them apart may be missing. Identical values can stand only once.

Series [1] can be described thus: Stability of CV-8972 in aqueous solution at different concentrations and pH. In kind it is physicochemical. How it is done: The stability of CV-8972 was analyzed. Aqueous samples containing CV-8972 at different concentrations and pH were incubated for various periods and analyzed.
Form A of CV-8972 were analyzed for stability in aqueous solution. Aqueous samples containing CV-8972 at different concentrations and pH were incubated for various periods and analyzed.

In series [2] the test system is isolated hearts after ischemia-reperfusion. As to the kind of experiment: Ischemia-reperfusion (IR) method, cardiac function (LVDP). In kind it is in vivo, mice. How it is done:
FIG. 38 is a schematic of the ischemia-reperfusion (IR) method used to analyze the effects of compositions of the invention on coronary flow, cardiac function, and infarct size. […] At 20 minutes, ischemia was induced, and coronary flow was analyzed. At 50 minutes, reperfusion was initiated to restore blood flow. At 170 minutes, coronary flow and cardiac function was analyzed, and then the hearts were preserved, sectioned, and infarct size was measured by triphenyltetrazolium chloride (TTC) staining. FIG. 40 is graph of left ventricular developed pressure (LVDP) after IR. Blue bars indicate LVDP at 20 minutes, and orange bars indicate LVDP at 170 minutes.

For series [3] the test system is unchanged. As to the kind of experiment: Ischemia-reperfusion (IR) method, coronary flow. In kind it is in vivo, mice. How it is done:
FIG. 38 is a schematic of the ischemia-reperfusion (IR) method used to analyze the effects of compositions of the invention on coronary flow, cardiac function, and infarct size. […] At 20 minutes, ischemia was induced, and coronary flow was analyzed. At 50 minutes, reperfusion was initiated to restore blood flow. At 170 minutes, coronary flow and cardiac function was analyzed, and then the hearts were preserved, sectioned, and infarct size was measured by triphenyltetrazolium chloride (TTC) staining. FIG. 39 is a graph of coronary flow of after IR.

Series [4] shares this test system. Kind of series: Ischemia-reperfusion (IR) method, infarct size by TTC staining. In kind it is in vivo, mice. The following applies: result in words. How it is done:
FIG. 38 is a schematic of the ischemia-reperfusion (IR) method used to analyze the effects of compositions of the invention on coronary flow, cardiac function, and infarct size. […] At 20 minutes, ischemia was induced, and coronary flow was analyzed. At 50 minutes, reperfusion was initiated to restore blood flow. At 170 minutes, coronary flow and cardiac function was analyzed, and then the hearts were preserved, sectioned, and infarct size was measured by triphenyltetrazolium chloride (TTC) staining. […] FIG. 42 is graph of infarct size after TR.

A short description of series [5]: Stability of CV-8972 forms in various solvents, X-ray powder diffraction. Particulars: batch 289-MBA-15-A (form B). In kind it is physicochemical. Here is the method: The stability of CV-8972 was analyzed.
Samples from batch 289-MBA-15-A (containing form B) were added to various solvents, incubated under various conditions, and analyzed by X-ray powder diffraction.
Samples from batch 289-MBA-16 (containing forms A and B) were added to various solvents, incubated under various conditions, and analyzed by X-ray powder diffraction.
Samples from batch S-18-0030513 (containing form A) were added to various solvents, incubated under various conditions, and analyzed by X-ray powder diffraction.

Regarding `COc1ccc(CN2CCN(CCOC(=O)c3cccnc3)CC2)c(OC)c1OC.Cl.Cl.Cl` [289-MBA-15-A], the “Retention Time 5.6 (CV-8972 peak)” value in series [1] (2 mg/mL pH 6 (Form B), 1 hrs, measured pH 6.9) worked out at 95.1; in series [1] (2 mg/mL pH 6 (Form B), 4 hrs, measured pH 6.8) it was 92.45; in series [1] (2 mg/mL pH 6 (Form B), 6 hrs, measured pH 6.8), 90.65; in series [1] (2 mg/mL pH 6 (Form B), 22 hrs, measured pH 6.7), 89.15; in series [1] (2 mg/mL pH 7 (Form B), 1 hrs, measured pH 6.6) it was 95.46; in series [1] (2 mg/mL pH 7 (Form B), 4 hrs, measured pH 6.5), 93.92. The “Retention Time 5.6 (CV-8972 peak)” value in series [1] (10 mg/mL pH 6 (Form B), 1 hrs, measured pH 6.1) is reported as 94.81; in series [1] (10 mg/mL pH 6 (Form B), 4 hrs, measured pH 6) it was 94.69; in series [1] (10 mg/mL pH 6 (Form B), 6 hrs, measured pH 5.9) it was 94.39; in series [1] (10 mg/mL pH 6 (Form B), 22 hrs, measured pH 5.9), 93.93; in series [1] (10 mg/mL pH 7 (Form B), 1 hrs, measured pH 7.4) it was 86.18; in series [1] (10 mg/mL pH 7 (Form B), 4 hrs, measured pH 7.4) it was 82.36. In addition, the “Retention Time 5.6 (CV-8972 peak)” value in series [1] (10 mg/mL pH 7 (Form B), 6 hrs, measured pH 7.3) came out at 79.37.
As for `COc1ccc(CN2CCN(CCOC(=O)c3cccnc3)CC2)c(OC)c1OC.Cl.Cl.Cl` [276-MBA-172], the “Retention Time 5.6 (CV-8972 peak)” value in series [1] (2 mg/mL pH 6 (Form A), 1 hrs, measured pH 6.1) turned out to be 97.22; in series [1] (2 mg/mL pH 6 (Form A), 4 hrs, measured pH 6.1) it was 97.01; in series [1] (2 mg/mL pH 6 (Form A), 6 hrs, measured pH 6.1) it was 96.51; in series [1] (2 mg/mL pH 7 (Form A), 1 hrs, measured pH 6.8) it was 95.06; in series [1] (2 mg/mL pH 7 (Form A), 4 hrs, measured pH 6.7) it was 93.7; in series [1] (2 mg/mL pH 7 (Form A), 6 hrs, measured pH 6.7), 92.12. Further, the “Retention Time 5.6 (CV-8972 peak)” value in series [1] (2 mg/mL pH 7 (Form A), 22 hrs, measured pH 6.8) turned out to be 91.07; in series [1] (10 mg/mL pH 6 (Form A), 1 hrs, measured pH 6.8) it was 93.43; in series [1] (10 mg/mL pH 6 (Form A), 4 hrs, measured pH 6.8), 91.82; in series [1] (10 mg/mL pH 6 (Form A), 6 hrs, measured pH 6.7) it was 91.8; in series [1] (10 mg/mL pH 6 (Form A), 22 hrs, measured pH 6.7) it was 89.66; in series [1] (10 mg/mL pH 7 (Form A), 1 hrs, measured pH 7.2), 89.05. Further, the “Retention Time 5.6 (CV-8972 peak)” value is 86.8 in series [1] (10 mg/mL pH 7 (Form A), 4 hrs, measured pH 7.1) and 84.79 in series [1] (10 mg/mL pH 7 (Form A), 6 hrs, measured pH 7.1).
Regarding `COc1ccc(CN2CCNCC2)c(OC)c1OC` [TMZ, trimetazidine], the “LVDP × HR” value in series [2] (after 2h reperfusion, group MEAN) was 6.82E+03; in series [2] (after 2h reperfusion, individual hearts) it was 2.52E+03 and 5.15E+03 and 5.28E+03 and 4.49E+03 and 3.24E+03 and 4.31E+03 and 9.11E+03 and 1.30E+04 and 6.44E+03 and 1.77E+04; in series [2] (pre-ischemia, group MEAN), 1.68E+04; in series [2] (pre-ischemia, individual hearts), 1.83E+04 and 2.31E+04 and 1.08E+04 and 1.77E+04 and 2.33E+04 and 1.26E+04 and 9.82E+03 and 1.01E+04 and 1.57E+04 and 2.36E+04. Further, in series [2] (result in words), the “cardiac function after IR” value was “prevented a decline in cardiac function”. The CF170/CF20 was 4.02E+01 ul/m1 in series [3] (group MEAN, ratio 170 minutes to 20 minutes); 2.42E+01 ul/m1 and 5.87E+01 ul/m1 and 3.57E+01 ul/m1 and 3.37E+01 ul/m1 and 5.21E+01 ul/m1 and 2.73E+01 ul/m1 and 2.60E+01 ul/m1 and 6.39E+01 ul/m1 in series [3] (ratio of flow at 170 minutes to flow at 20 minutes, individual hearts, TMZ 20 μM, TNF 2 μM each, TNS 20 μM each). Moreover, in series [4], the “infarct size after IR” value was “decreased infarct size”.
With `COc1ccc(CN2CCN(CCOC(=O)c3cccnc3)CC2)c(OC)c1OC` [CV-8972, 2-(4-(2,3,4-trimethoxybenzyl)piperazin-1-yl)ethyl nicotinate], the XRPD results in series [5] (EtOH, CC from 60° C.) is on record as “Form C + minor”; in series [5] (no solvent, 100° C., 20 minutes), “Form B, shifted”.
